Experimental data reported in patent EP1102769B1, “TRICYCLIC CARBOXAMIDES” (SmithKline Beecham plc, priority 1998, dated 2000).

Tested on: maximal (tonic hindlimb extension) electroshock seizures in male rats
Assay: Maximal electroshock seizure (MEST) threshold test, rat model
Type: in vivo, rats (Sprague Dawley)
Details: 2 mg/kg p.o., suspension in methyl cellulose, one hour post dosing, statistically significant, percentage increase in CC50 compared to control
Protocol: The maximal electroshock seizure (MEST) threshold test in rodents is particularly sensitive for detecting potential anticonvulsant properties ^1. In this model, anticonvulsant agents elevate the threshold to electrically-induced seizures whilst proconvulsants lower the seizure threshold.
Mice (naive male, Charles River, U.K. CD-1 strain, 25 - 30g) are randomly assigned to groups of 10 - 20 and dosed orally or intraperitoneally at a dose volume of 10 ml/kg with various doses of compound (0.3 - 300 mg/kg) or vehicle. Mice are then subjected at 30 or 60 min post dose to a single electroshock (0.1 sec, 50Hz, sine wave form) administered via corneal electrodes. The mean current and standard error required to induce a tonic seizure in 50% (CC50) of the mice in a particular treatment group is determined by the 'up and down' method of Dixon and Mood (1948)^2. Statistical comparisons between vehicle- and drug-treated groups are made using the method of Litchfield and Wilcoxon (1949)^3. […]
The threshold for maximal (tonic hindlimb extension) electroshock seizures in male rats (Sprague Dawley, 80 - 150g, 6 weeks old) was determined by a Hugo Sachs Electronik stimulator which delivered a constant current (0.3 sec duration; from 1-300mA in steps of 5-20mA). . […]
The percentage increase or decrease in CC50 for each group compared to the control is calculated. […]

COc1ccc(C(=O)Nc2ccc3c(c2)C2CCCN2CC3)cc1C(F)(F)F (racemic) [Example 3, (+/-)N-(1,2,3,5,6,10b-hexahydropyrrolo[2,1-a]isoquinolin-9-yl)-4-methoxy-3-trifluoromethylbenzamide]
increase in seizure threshold: 426%
